# Results as given in US20100022520A1, “MALONYL-COA ACETYLTRANSFERASE INHIBITORS AGAINST ANTIBIOTIC RESISTANT BACTERTIA” (University of Pittsburgh -- Of the Commonwealth System of …, priority 2008, published 2010).
# How the values were obtained:
# E. coli FabD = biological target: T1, E. coli FabD (Escherichia coli, UniProt P0AAI9); test: in vitro FabD (MCAT) enzyme inhibition assay, HPLC of CoA peak; type: biochemical; conditions: protocol of Molnos et al.
# T1 construct: made in house; host or cells: E. coli
# T1 sequence (P0AAI9 whole entry): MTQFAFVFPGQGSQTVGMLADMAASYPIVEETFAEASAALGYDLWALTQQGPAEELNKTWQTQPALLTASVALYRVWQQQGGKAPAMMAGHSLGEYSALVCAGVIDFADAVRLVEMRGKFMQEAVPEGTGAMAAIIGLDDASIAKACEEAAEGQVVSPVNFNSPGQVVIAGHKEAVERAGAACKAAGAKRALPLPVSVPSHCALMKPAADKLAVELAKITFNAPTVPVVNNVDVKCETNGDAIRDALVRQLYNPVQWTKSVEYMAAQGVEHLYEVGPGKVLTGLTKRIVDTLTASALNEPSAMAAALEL
# Procedure: Compounds synthesized using MCR, as described above, were tested for their ability to inhibit FabD using an in vitro inhibition assay. Briefly, FabD and holo-ACP was cloned, and expressed in E. coli according to the protocol of Molnos et al., Anal. Biochem. 2003, 319, 171. The proteins were purified using the ACTA protein purification system. The inhibition study was carried out according to the protocol of Miossec et al., American Society for Microbiology 104th General Meeting, New Orleans, 2004 (LA. Abstract: K-001), and was performed in a final volume of 100 μl in 96-well microtiter plates (IEA/RIA black, flat bottom, half area plates, Costar).
# Purified E. coli FabD was diluted in the enzyme dilution buffer (100 mM phosphate buffer pH 7, DTT 1.5 mM, BSA 1 mg/ml [30 ml of Assay buffer+30 mg of BSA]) at ten times the final concentration (0.75 ng/ml). Malonyl-CoA (10 mM, Sigma) was diluted to ten times the final concentration (25 uM) with distilled H2O. Holo-ACP was prepared to 874 μM. […] The reaction mixture was analyzed by anion exchange, high performance liquid chromatography, using a PL-SAX8u 4.6 mm×150 mm column (Polymer Laboratories) and UV-detection (CoA and malonyl-CoA are detected at 254 nm). The percent inhibition of FabD was calculated by integrating the area of the CoA peak in the chromatogram. […]
# caspase = test: inhibition of caspase
# [1] = tested on: 32D cl 3 mouse hematopoietic progenitor cells; test: radioprotection, survival curves of irradiated 32D cl 3 cells; type: cell-based; conditions: for radioprotective effect on cells: 10 μM, compound added before or after radiation; for Do (Gy): compound at 10 μM, ionizing radiation survival curve
# Procedure: To measure the level of radioprotection for compounds in Table 3, a DMSO solution is made for each compound and added to 32D cl 3 cells, a mouse hematopoietic progenitor cell line at a final concentration of 10 μM. The terms “radioprotection” and “radioprotective” refer to the protective effect on normal cells exerted by the captioned compounds when such cells are exposed to ionizing radiation.
# FIGS. 2-4 show the survival curves for 32D cl 3 cells in the presence of different compounds of the invention. A strong radioprotective effect is seen in cultures that include the captioned compounds. FIGS. 2 and 3 show cell survival curves when the captioned compounds were added to cell cultures before exposure to radiation. The survival curves in FIG. 4, however, show the radioprotective effect of the inventive compounds when delivered to cell cultures after exposure to ionizing radiation. […] Moreover, the extent of radioprotection in a culture that is pretreated with an inventive compound is similar to that observed in a culture in which such compound is added after exposure to radiation.
# The extent of radioprotection afforded by the captioned compounds is determined by measuring the fraction of viable cells in a culture containing the captioned radioprotective agent. The fraction of viable cells is determined by back-extrapolating the linear portion of the shoulder width in a survival curve to the Y-axis.
# p53 = test: inhibition of p53
Compound,ability to inhibit FabD (E. coli FabD),inhibition of caspase (caspase),radioprotective effect on cells [1],Do (Gy) [1],inhibition of p53 (p53)
"CC(C)=CCC[C@H](C)CC(NC1CCSC1=O)C(=O)NC(c1ccccc1)c1ccccc1 (stereo partly drawn) [Compound 13a, (S)-4,8-Dimethyl-2-(2-oxo-tetrahydro-thiophen-3-ylamino)-non-7-enoic acid benzhydryl-amide]",potent inhibitors,–,–,–,–
Cc1cn(CC(NC2CCSC2=O)C(=O)NC(C)(C)C)c(=O)[nH]c1=O (racemic) [SK7],–,inhibit caspase,potent radioprotective effect,1.1 ± 0.1 Gy,–
COC(=O)CNC(=O)C(NC1CCSC1=O)C1CC1 (racemic) [BEB 69],–,inhibit caspase,–,–,p53 inhibitors
"O=C(NCc1ccccc1)[C@@H]1CSC(=O)[C@H](Cc2ccccc2)N1 (single isomer, unassigned) [BEB 75-1]",–,–,potent radioprotective effect,0.9 ± 0.1 Gy,–
Clc1ccc(-c2ncn(CC3CC3)c2-c2c[nH]c3ccccc23)cc1 [BEB 55],–,–,–,1.1 ± 0.1 Gy,inhibitors of p53
Clc1cccc(Cc2ncn(CC3CC3)c2-c2c[nH]c3ccccc23)c1 [BEB 59],–,–,–,1.1 ± 0.1 Gy,inhibitors of p53
"Cc1cc(C)c(NC(=O)C(NC2CCSC2=O)C(C)C)c(C)c1 (stereo not shown) [Compound 15a, 3-Methyl-2-(2-oxo-tetrahydro-thiophen-3-ylamino)-N-(2,4,6-trimethyl-phenyl)-butyramide]",potent inhibitors,–,–,–,–
